Assay results reported in US20120208781A1, “AMINOGLYCOSIDE DOSING REGIMENS” (Achaogen, Inc., priority 2009, published 2012).
Converted amounts (≈) assume the structure as drawn.

How the values were obtained:
Format in all cases: cell-based
E. coli = experiment: MIC, further Brooklyn patient isolates: E. coli; design: unit not given beside the values; settings: E. coli (n = 3071)
Description: (§1) Minimum inhibitory concentrations (MIC) were determined by reference Clinical and Laboratory Standards Institute (CLSI) broth microdilution methods per M7-A7 [2006]. Briefly, serial two-fold dilutions of Compound 1 and comparator AGs (together, “the test compounds”) were prepared at 2× concentration in appropriate diluent. The dilutions were mixed in 96-well assay plates with bacterial inoculum. Bacteria were suspended in sterile saline and added to each assay plate to obtain a final concentration of 5.5×10^5 CFU/mL. The plates were incubated at 35° C. for 20 hours in ambient air. […] After incubation, assay plates were read using a microtiter plate reader at 600 nm.
(§2) Further studies analyzed a greater number of unique patient isolates obtained from Brooklyn, N.Y. hospitals (including those species described above). These species included Acinetobacter, E. coli, Enterobacter, Klebsiella, and Pseudomonas.

Enterobacter = experiment: MIC, further Brooklyn patient isolates: Enterobacter; design: unit not given beside the values; settings: Enterobacter (n = 206)
Description: as §1, §2

P. aeruginosa (PA) = experiment: MIC, broth microdilution, Brooklyn hospital isolates: P. aeruginosa; settings: PA (n = 33)
Description: (§3) In another study, the activity of Compound 1 against a collection of contemporary Gram-negative bacteria was determined. Unique patient isolates of P. aeruginosa (PA), A. baumannii (AB), K. pneumoniae (KP), E. coli (EC), and Enterobacter spp. (EB) from prior surveys at 16 Brooklyn, N.Y. hospitals were selected based on resistance patterns. The majority of isolates were fingerprinted by automated ribotyping. MICs were performed by broth microdilution. PCR was used to identify aminoglycoside-modifying enzymes (AMEs) in AB and KP and the KPC gene in Enterobacteriaceae (EN). The expression of the efflux genes mexA, C, E and X in PA, and adeB in AB was assessed by real-time RT-PCR.

A. baumannii (AB) = experiment: MIC, broth microdilution, Brooklyn hospital isolates: A. baumannii; settings: AB (n = 38)
Description: as §3

K. pneumoniae (KP) = experiment: MIC, broth microdilution, Brooklyn hospital isolates: K. pneumoniae; settings: KP (n = 71)
Description: as §3

E. coli (EC) = experiment: MIC, broth microdilution, Brooklyn hospital isolates: E. coli; settings: EC (n = 32)
Description: as §3

Enterobacter spp. (EB) = experiment: MIC, broth microdilution, Brooklyn hospital isolates: Enterobacter spp.; settings: EB (n = 30)
Description: as §3

MIC50 (E. coli) | MIC90 (E. coli) | MIC50 (Enterobacter) | MIC50 (P. aeruginosa (PA); Pseudomonas aeruginosa) | MIC90 (P. aeruginosa (PA); Pseudomonas aeruginosa) | MIC50 (A. baumannii (AB); Acinetobacter baumannii) | MIC90 (A. baumannii (AB); Acinetobacter baumannii) | MIC50 (K. pneumoniae (KP); Klebsiella pneumoniae) | MIC90 (K. pneumoniae (KP); Klebsiella pneumoniae) | MIC50 (E. coli (EC); Escherichia coli) | MIC90 (E. coli (EC); Escherichia coli) | MIC50 (Enterobacter spp. (EB); Enterobacter) | MIC90 (Enterobacter spp. (EB); Enterobacter) | SMILES | Susceptible (P. aeruginosa (PA)) | Susceptible (A. baumannii (AB)) | Susceptible (K. pneumoniae (KP)) | Susceptible (E. coli (EC)) | Susceptible (Enterobacter spp. (EB))
≦0.25 | ≦0.25 | ≦0.25 | – | – | – | – | – | – | – | – | – | – | CO/N=C(\C(=O)N[C@@H]1C(=O)N2C(C(=O)[O-])=C(C[N+]3(C)CCCC3)CS[C@H]12)c1csc(N)n1 [FEP, cefepime] | – | – | – | – | –
– | – | – | 4 µg/mL (≈ 13.4 µM) | > 8 µg/mL | 4 µg/mL (≈ 13.4 µM) | > 8 µg/mL | 0.25 µg/mL (≈ 0.835 µM) | > 8 µg/mL | 0.125 µg/mL (≈ 0.418 µM) | 4 µg/mL (≈ 13.4 µM) | 0.5 µg/mL (≈ 1.67 µM) | 2 µg/mL (≈ 6.68 µM) | C[C@@H](O)[C@H]1C(=O)N2C(C(=O)O)=C(SCCN=CN)C[C@H]12 [Imipenem] | 55% | 55% | 79% | 91% | 93%
